Measurements reported in US20240099302A1, “Use of a Biobased Composition Comprising Ferulated Chitosan for Regulating and Stimulating Plant Growth” (FYTEKO SA, priority 2020, published 2024).

Test system: new guinea impatient plants cultivar Sony pink
Assay: Effect of foliar spraying on flowering of new guinea impatient plants
Assay type: in vivo
Conditions: foliar spraying once a week for 8 weeks, evaluated 22 weeks after sowing
Description: Different treatments were applied by foliar spraying on one-month old new guinea impatient plants cultivar Sony pink once a week for 8 weeks. The effect of foliage of application on the inflorescence was evaluated at the end of the flowering step (22 weeks after sowing) and the results are shown in Table 12.

For `COc1cc(/C=C/C(=O)O)ccc1O` [Ferulic acid], the “Average diameter of the flowers” value was 6.40 cm and the “Total number of flowers per plant” value was 60.0.
In the case of Diferulic acid, the “Average diameter of the flowers” value is reported as 6.52 cm and the “Total number of flowers per plant” value is reported as 74.2.
